Values quoted from earlier work, collected in patent US7135615B2, “Chromosome doubling method” (The Curators of the University of Missouri, priority 2001, dated 2006).

System: parthenogenetically induced haploid maize (Zea mays L.) seedlings
Conditions: cited from earlier work

What does the source list for `COc1cc2c(c(OC)c1OC)-c1ccc(OC)c(=O)cc1[C@@H](NC(C)=O)CC2` [colchicine]?
haploid recovery rates (colchicine treatments of haploid maize seedlings, reported): 26–41%; recovery rates could drop as low as (colchicine treatments, affected by growing conditions): 0.8–3.1%; estimated selfing rate (previously used colchicine treatments): 5–15%
